Results as given in PubChem BioAssay (NCI).
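Here, GI50 denotes the concentration required for 50% inhibition of growth. The concentration for full growth arrest is given as TGI.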

Columns and labels:
Assay in all cases: NCI tumour cell line growth inhibition, 384-well format
OVCAR-8 ovarian = test system: OVCAR-8 ovarian
OVCAR-4 ovarian = test system: OVCAR-4 ovarian
A549 NSCLC = test system: A549 NSCLC
CCRF-CEM leukemia = test system: CCRF-CEM leukemia
KM12 colon = test system: KM12 colon
IGROV1 ovarian = test system: IGROV1 ovarian
HL-60(TB) leukemia = test system: HL-60(TB) leukemia
CAKI-1 renal = test system: CAKI-1 renal
MDA-MB-435 melanoma = test system: MDA-MB-435 melanoma
HT29 colon = test system: HT29 colon
SF-539 CNS = test system: SF-539 CNS
MDA-MB-468 breast = test system: MDA-MB-468 breast
BT-549 breast = test system: BT-549 breast

SMILES: CC1(N)CCN(c2cccnc2NC(=O)c2nc(-c3ncccc3C(F)(F)F)cnc2N)CC1
- GI50 (OVCAR-8 ovarian): 30.9 µM
- TGI (OVCAR-8 ovarian): > 70.5 µM
- GI50 (OVCAR-4 ovarian): > 69.4 µM
- TGI (OVCAR-4 ovarian): > 100 µM
- GI50 (A549 NSCLC): 25 µM
- TGI (A549 NSCLC): > 65 µM
- GI50 (CCRF-CEM leukemia): 15.4 µM
- TGI (CCRF-CEM leukemia): 28.9 µM
- GI50 (KM12 colon): 0.308 µM
- TGI (KM12 colon): 20.2 µM
- GI50 (IGROV1 ovarian): 3.28 µM
- TGI (IGROV1 ovarian): 15 µM
- GI50 (HL-60(TB) leukemia): 7.32 µM
- TGI (HL-60(TB) leukemia): 18 µM
- GI50 (CAKI-1 renal): 6.11 µM
- TGI (CAKI-1 renal): 24.2 µM
- GI50 (MDA-MB-435 melanoma): > 56.1 µM
- TGI (MDA-MB-435 melanoma): > 100 µM
- GI50 (HT29 colon): 17.2 µM
- TGI (HT29 colon): > 58.8 µM
- GI50 (SF-539 CNS): 24 µM
- TGI (SF-539 CNS): > 51.2 µM
- GI50 (MDA-MB-468 breast): 13.6 µM
- TGI (MDA-MB-468 breast): 28.2 µM
- GI50 (BT-549 breast): 8.16 µM
- TGI (BT-549 breast): 20.6 µM
